Test results: PubChem BioAssay (NCI)
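How tested: cells in 96-well plates exposed to compound for 48 hours at five concentrations. Abbreviation: GI50, concentration required for 50% inhibition of growth. TGI marks complete inhibition of growth.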

Tests used:
Assay in all cases: growth of human tumour cells (NCI), 48 h
[1] = tested on: M14 melanoma
[2] = tested on: 786-0 renal
[3] = tested on: SK-MEL-28 melanoma
[4] = tested on: RPMI-8226 leukemia
[5] = tested on: OVCAR-3 ovarian
[6] = tested on: EKVX NSCLC
[7] = tested on: LOX IMVI melanoma
[8] = tested on: KM12 colon
[9] = tested on: NCI/ADR-RES ovarian
[10] = tested on: NCI-H522 lung
[11] = tested on: UACC-257 melanoma
[12] = tested on: K-562 leukemia
[13] = tested on: MDA-MB-435
[14] = tested on: SN12C renal
[15] = tested on: MDA-MB-231 breast
[16] = tested on: UACC-62 melanoma
[17] = tested on: SNB-19 CNS
[18] = tested on: SF-539 CNS
[19] = tested on: HCC-2998 colon
[20] = tested on: HS 578T breast
[21] = tested on: SK-OV-3 ovarian
[22] = tested on: TK-10 renal
[23] = tested on: DU-145 prostate
[24] = tested on: HOP-62 NSCLC
[25] = tested on: A549 NSCLC
[26] = tested on: MCF7 breast
[27] = tested on: NCI-H460 lung
[28] = tested on: OVCAR-4 ovarian
[29] = tested on: IGROV1 ovarian
[30] = tested on: HCT-15 colon
[31] = tested on: COLO 205 colon
[32] = tested on: CAKI-1 renal
[33] = tested on: MOLT-4 leukemia
[34] = tested on: NCI-H226 lung
[35] = tested on: A498 renal
[36] = tested on: MALME-3M melanoma
[37] = tested on: SK-MEL-5 melanoma
[38] = tested on: SF-268 CNS
[39] = tested on: T-47D breast
[40] = tested on: RXF 393 renal
[41] = tested on: NCI-H23 lung
[42] = tested on: OVCAR-5 ovarian
[43] = tested on: BT-549 breast
[44] = tested on: U251 CNS
[45] = tested on: SF-295 CNS
[46] = tested on: HT29 colon
[47] = tested on: HL-60(TB) leukemia
[48] = tested on: CCRF-CEM leukemia
[49] = tested on: PC-3 prostate
[50] = tested on: HOP-92 NSCLC
[51] = tested on: SK-MEL-2 melanoma
[52] = tested on: OVCAR-8 ovarian
[53] = tested on: ACHN renal
[54] = tested on: HCT-116 colon
[55] = tested on: SW-620 colon
[56] = tested on: SNB-75 CNS
[57] = tested on: UO-31 renal

## N#CC(C#N)=C/C=C(\Sc1ccc(F)c(Cl)c1)c1ccc(Cl)cc1
[1]
  GI50: 0.807 µM
  TGI: 2.53 µM
[2]
  GI50: 0.95 µM
  TGI: 2.49 µM
[3]
  TGI: 3.53 µM
[4]
  GI50: 0.271 µM
  TGI: 0.967 µM
[5]
  GI50: 3.99 µM
  TGI: 16.3 µM
[6]
  GI50: 14.5 µM
  TGI: 39.5 µM
[7]
  GI50: 0.302 µM
  TGI: 1.12 µM
[8]
  GI50: 2.74 µM
  TGI: 13.1 µM
[9]
  GI50: 1.11 µM
  TGI: 4.82 µM
[10]
  GI50: 1.8 µM
  TGI: 7.71 µM
[11]
  GI50: 6.68 µM
  TGI: 19.5 µM
[12]
  GI50: 0.396 µM
  TGI: 12.6 µM
[13]
  GI50: 1.25 µM
  TGI: 4.29 µM
[14]
  GI50: 0.669 µM
  TGI: 1.93 µM
[15]
  GI50: 0.671 µM
  TGI: 2.02 µM
[16]
  GI50: 2.43 µM
  TGI: 11.5 µM
[17]
  GI50: 5.48 µM
  TGI: 28.2 µM
[18]
  GI50: 2.19 µM
  TGI: 6.58 µM
[19]
  GI50: 5.71 µM
  TGI: 17.8 µM
[20]
  GI50: 4.78 µM
  TGI: 43.5 µM
[21]
  GI50: 15.8 µM
  TGI: > 41.1 µM
[22]
  GI50: 1.62 µM
  TGI: 6.57 µM
[23]
  GI50: 1.12 µM
  TGI: 6.77 µM
[24]
  GI50: 1.52 µM
  TGI: 5.78 µM
[25]
  GI50: 3.29 µM
  TGI: 12.7 µM
[26]
  GI50: 1.25 µM
  TGI: 26.7 µM
[27]
  GI50: 5.24 µM
  TGI: 22.7 µM
[28]
  GI50: 0.918 µM
  TGI: 7.43 µM
[29]
  GI50: 1.09 µM
  TGI: 4.29 µM
[30]
  GI50: 0.601 µM
  TGI: 2.01 µM
[31]
  GI50: 2.58 µM
  TGI: > 21.3 µM
[32]
  GI50: 1.77 µM
  TGI: 12.1 µM
[33]
  GI50: 0.335 µM
  TGI: 2.74 µM
[34]
  GI50: 2.05 µM
  TGI: 6.25 µM
[35]
  GI50: 16 µM
  TGI: 32.4 µM
[36]
  GI50: 3.26 µM
  TGI: 20.4 µM
[37]
  GI50: 7.22 µM
  TGI: 19.4 µM
[38]
  GI50: 2.52 µM
  TGI: 17.8 µM
[39]
  GI50: 11.6 µM
  TGI: 46.3 µM
[40]
  GI50: 0.663 µM
  TGI: 2.12 µM
[41]
  GI50: 1.14 µM
  TGI: 5.64 µM
[42]
  GI50: 2.93 µM
  TGI: 24.6 µM
[43]
  GI50: 3.09 µM
  TGI: 8.84 µM
[44]
  GI50: 0.72 µM
  TGI: 2.61 µM
[45]
  GI50: 10.7 µM
  TGI: > 53.2 µM
[46]
  GI50: 0.545 µM
  TGI: 2.24 µM
[47]
  GI50: 0.317 µM
  TGI: 4.48 µM
[48]
  GI50: 0.193 µM
  TGI: 0.539 µM
[49]
  GI50: 0.787 µM
  TGI: 7.1 µM
[50]
  GI50: 0.947 µM
  TGI: 6.91 µM
[51]
  GI50: 7.01 µM
  TGI: 23.9 µM
[52]
  GI50: 0.862 µM
  TGI: 2.42 µM
[53]
  GI50: 0.795 µM
  TGI: 3.34 µM
[54]
  GI50: 0.3 µM
  TGI: 0.799 µM
[55]
  GI50: 0.494 µM
  TGI: 5.74 µM
[56]
  GI50: 5.62 µM
  TGI: 16 µM
[57]
  GI50: 0.889 µM
  TGI: 2.86 µM
